From patent US20070059321A1, “Methods of reducing minimal inhibitory concentration of antibiotics and compositions resulting therefrom” (The Hong Kong Polytechnic University, priority 2005, published 2007)
Read-outs that look alike come from different tables or passages of the source.

What was measured:
Type in all cases: cell-based
[1] = system: MRSA4 (methicillin-resistant Staphylococcus aureus clinical isolate); assay: Broth microdilution MIC (NCCLS 2000), strain MRSA4; details: 18 h
Procedure: (§1) Antimicrobial susceptibility testing was performed by broth assay followed standard laboratory procedures (the National Committee for Clinical Laboratory Standards (NCCLS) protocol 2000). The MIC in this assay was defined as the lowest concentration of the antibiotic under test that inhibited the visible growth of the microorganism under study.
(§2) There were eight strains of Staphylococcus aureus tested. All were from clinical isolates as they represent strains actually present in the community and so of clinical relevance. Three strains were sensitive to methicillin (MSSA), and five strains were resistant to methicillin (MRSA).
(§3) The MIC for each of the eight strains was determined for penicillin G and for vancomycin using dilutions made from the stock preparations purchased (both from Sigma). […]
(§4) The antimicrobial susceptibility test was performed in a 96-well microtitre plate and following standard National Committee for Clinical Laboratory Standards (NCCLS) protocol (NCCLS, 2000). […] Minimal inhibitory concentration (MIC) was determined by the microdilution method in Mueller-Hinton broth (Oxoid, Hampshire, UK), according to the standards of the NCCLS (2000). […]
(§5) Each bacterial strain was plated overnight on Mueller-Hinton agar and then transferred to a broth 3 hours before the assay was performed. […] Microplates were examined 18 hours later and determined for MIC. […]

[2] = system: MSSA3 (methicillin-sensitive Staphylococcus aureus clinical isolate); assay: Broth microdilution MIC (NCCLS 2000), strain MSSA3; details: 18 h
Procedure: as §1, §2, §3, §4, §5

[3] = system: MRSA2 (methicillin-resistant Staphylococcus aureus clinical isolate); assay: Broth microdilution MIC (NCCLS 2000), strain MRSA2; details: 18 h
Procedure: as §1, §2, §3, §4, §5

[4] = system: MRSA3 (methicillin-resistant Staphylococcus aureus clinical isolate); assay: Broth microdilution MIC (NCCLS 2000), strain MRSA3; details: 18 h
Procedure: as §1, §2, §3, §4, §5

[5] = system: MRSA1 (methicillin-resistant Staphylococcus aureus clinical isolate); assay: Broth microdilution MIC (NCCLS 2000), strain MRSA1; details: 18 h
Procedure: as §1, §2, §3, §4, §5

[6] = system: MSSA2 (methicillin-sensitive Staphylococcus aureus clinical isolate); assay: Broth microdilution MIC (NCCLS 2000), strain MSSA2; details: 18 h
Procedure: as §1, §2, §3, §4, §5

[7] = system: MSSA1 (methicillin-sensitive Staphylococcus aureus clinical isolate); assay: Broth microdilution MIC (NCCLS 2000), strain MSSA1; details: 18 h
Procedure: as §1, §2, §3, §4, §5

[8] = system: eight strains of Staphylococcus aureus (MSSA and MRSA clinical isolates); assay: Broth microdilution MIC (NCCLS 2000), summary over all tested strains; details: read-out: MIC concentrations of the different strains
Procedure: as §1, §2, §3, §4, §5

[9] = system: MRSA5 (methicillin-resistant Staphylococcus aureus clinical isolate); assay: Broth microdilution MIC (NCCLS 2000), strain MRSA5; details: 18 h
Procedure: as §1, §2, §3, §4, §5

Structure (SMILES) | MIC ([1]; strain MRSA4, extract where present 1% w/v final, 37° C., Mueller-Hinton broth, read-out: MIC) | MIC ([2]; strain MSSA3, extract where present 1% w/v final, 37° C., Mueller-Hinton broth, read-out: MIC) | MIC ([3]; strain MRSA2, extract where present 1% w/v final, 37° C., Mueller-Hinton broth, read-out: MIC) | MIC ([4]; strain MRSA3, extract where present 1% w/v final, 37° C., Mueller-Hinton broth, read-out: MIC) | MIC ([5]; strain MRSA1, extract where present 1% w/v final, 37° C., Mueller-Hinton broth, read-out: MIC) | MIC ([6]; strain MSSA2, extract where present 1% w/v final, 37° C., Mueller-Hinton broth, read-out: MIC) | MIC ([7]; strain MSSA1, extract where present 1% w/v final, 37° C., Mueller-Hinton broth, read-out: MIC) | MIC ([8]; antibiotic alone, range over the eight MSSA and MRSA strains) | MIC ([9]; strain MRSA5, extract where present 1% w/v final, 37° C., Mueller-Hinton broth, read-out: MIC) | MIC [1] | MIC [2] | MIC [3] | MIC [4] | MIC [5] | MIC [6] | MIC [7] | MIC [8] | MIC [9]
CC1(C)S[C@@H]2[C@H](NC(=O)Cc3ccccc3)C(=O)N2[C@H]1C(=O)O [Pen, penicillin G] | 256 µg/mL | 8 µg/mL | 256 µg/mL | 1020 µg/mL | 512 µg/mL | 32 µg/mL | 64 µg/mL | 8 to 1020 µg/mL | 512 µg/mL | – | – | – | – | – | – | – | – | –
CN[C@H](CC(C)C)C(=O)N[C@H]1C(=O)N[C@@H](CC(N)=O)C(=O)N[C@H]2C(=O)N[C@H]3C(=O)N[C@H](C(=O)N[C@H](C(=O)O)c4cc(O)cc(O)c4-c4cc3ccc4O)[C@H](O)c3ccc(c(Cl)c3)Oc3cc2cc(c3O[C@@H]2O[C@H](CO)[C@@H](O)[C@H](O)[C@H]2O[C@H]2C[C@](C)(N)[C@H](O)[C@H](C)O2)Oc2ccc(cc2Cl)[C@H]1O [Van, vancomycin] | – | – | – | – | – | – | – | – | – | 0.5 µg/mL | 0.5 µg/mL | 1 µg/mL | 1 µg/mL | 0.5 µg/mL | 0.5 µg/mL | 0.5 µg/mL | 0.5 to 1 µg/mL | 0.5 µg/mL
